How the values were obtained:
[1] = test system: Alcaligenes faecalis ATCC 213; test: In vitro antibacterial spectrum profile, zone of inhibition; type: cell-based; conditions: ATCC213, 182 μg/ml, read-out: Inhib. Zone Diam.
Procedure: (§1) The test to determine the antibiotic spectrum profile is carried out by application of a 0.015 ml. droplet on the surface of a 100×15 mm. petri plate containing 5 ml. of seeded nutrient agar and 0.2% yeast extract. The antibiotic 890A1 is tested at a level of 33 μg/ml. and the antibiotic 890A3 is tested at a level of 182 μg/ml.

Bacillus sp. MB-633 = test: as above; type: cell-based; conditions: SP.MB633, 182 μg/ml, read-out: Inhib. Zone Diam.
Procedure: as §1

[2] = test system: Corynebacterium pseudoidph. ATCC 9742; test: as above; type: cell-based; conditions: ATCC9742, 182 μg/ml, read-out: Inhib. Zone Diam.
Procedure: as §1

[3] = test system: Proteus vulgaris ATCC 21100; test: as above; type: cell-based; conditions: ATCC21100, 182 μg/ml, read-out: Inhib. Zone Diam.
Procedure: as §1

Proteus vulgaris MB-1012 = test: as above; type: cell-based; conditions: MB1012, 182 μg/ml, read-out: Inhib. Zone Diam.
[4] = test system: Pseudomonas aeruginosa MB-979; test: as above; type: cell-based; conditions: MB979, 182 μg/ml, read-out: Inhib. Zone Diam.
[5] = test system: Serratia marcescens ATCC 990; test: as above; type: cell-based; conditions: ATCC990, 182 μg/ml, read-out: Inhib. Zone Diam.
[6] = test system: Staphlococcus aureus ATCC 6538 P; test: as above; type: cell-based; conditions: read-out: Inhib. Zone Diam.
[7] = test system: Bacillus subtilis ATCC 6633; test: as above; type: cell-based; conditions: ATCC6633, 182 μg/ml, read-out: Inhib. Zone Diam.
Sarcina lutea ATCC 9341 = test: as above; type: cell-based; conditions: Micrococcus luteus, ATCC9341; 182 μg/ml; read-out: Inhib. Zone Diam.
[8] = test system: Staphylococcus aureus MB-698; test: as above; type: cell-based; conditions: MB698, read-out: Inhib. Zone Diam.
[9] = test system: Streptococcus faecalis MB-753; test: as above; type: cell-based; conditions: Enterococcus faecalis, MB753; 182 μg/ml; read-out: Inhib. Zone Diam.
[10] = test system: Brucella bronchiseptica ATCC 4617; test: microbe, parasite or virus in culture; type: cell-based; conditions: Bordetella bronchiseptica, ATCC4617, read-out: Inhib. Zone Diam.
[11] = test system: Salmonella gallinarum MB-1287; test: In vitro antibacterial spectrum profile, zone of inhibition; type: cell-based; conditions: Salmonella enterica, 182 μg/ml, read-out: Inhib. Zone Diam.
[12] = test system: Vibrio percolans ATCC 8461; test: as above; type: cell-based; conditions: Comamonas terrigena, ATCC8461; 182 μg/ml; read-out: Inhib. Zone Diam.
[13] = test system: Xanthomonas vesicatoria MB-815; test: as above; type: cell-based; conditions: MB815, 182 μg/ml, read-out: Inhib. Zone Diam.
Escherichia coli MB-1418 = test: as above; type: cell-based; conditions: MB1418, 182 μg/ml, read-out: Inhib. Zone Diam.
[14] = test system: Pseudomonas stutzeri ATCC 11607; test: as above; type: cell-based; conditions: Stutzerimonas stutzeri, ATCC11607; 182 μg/ml; read-out: Inhib. Zone Diam.
[15] = test system: Klebsiella pneumoniae MB-1264; test: as above; type: cell-based; conditions: MB1264, 182 μg/ml, read-out: Inhib. Zone Diam.
[16] = test system: Aerobacter aerogenes MB-835; test: as above; type: cell-based; conditions: Klebsiella aerogenes, MB835; 182 μg/ml; read-out: Inhib. Zone Diam.
[17] = test system: Erwinia atroseptica ATCC 4466; test: as above; type: cell-based; conditions: Pectobacterium atrosepticum, ATCC4466; 182 μg/ml; read-out: Inhib. Zone Diam.
[18] = test system: Pseudomonas aeruginosa MB-2824; test: as above; type: cell-based; conditions: MB2824, 182 μg/ml, read-out: Inhib. Zone Diam.
[19] = test system: Escherichia coli ATCC 9637; test: In vitro antibacterial spectrum profile, zone of inhibition, synthetic medium; type: cell-based; conditions: ATCC9637, 182 μg/ml, synthetic medium, read-out: Inhib. Zone Diam.
[20] = test system: Streptococcus faecium MB-2820; test: In vitro antibacterial spectrum profile, zone of inhibition; type: cell-based; conditions: Enterococcus faecium, MB2820; 182 μg/ml; read-out: Inhib. Zone Diam.
[21] = test system: Streptococcus agalactiae MB-2875; test: as above; type: cell-based; conditions: MB2875, 182 μg/ml, read-out: Inhib. Zone Diam.
[22] = test system: Vibrio percolans resistant to ceph. C MB-2566; test: as above; type: cell-based; conditions: Comamonas terrigena, read-out: Inhib. Zone Diam.
[23] = test system: Proteus vulgaris (episome) MB-2112; test: as above; type: cell-based; conditions: 182 μg/ml, read-out: Inhib. Zone Diam.
[24] = test system: Proteus mirabilis MB-3126; test: as above; type: cell-based; conditions: MB3126, 182 μg/ml, read-out: Inhib. Zone Diam.
[25] = test system: Vibrio percolans ATCC 8461 + 2 × 10^5 units/ml penicillinase; test: In vitro antibacterial spectrum profile, zone of inhibition, with penicillinase; type: cell-based; conditions: Comamonas terrigena, ATCC8461, 182 μg/ml, read-out: Inhib. Zone Diam.
penicillinase = test: Resistance to degradation by penicillinase; type: biochemical; conditions: compared with 890A1
Procedure: Bio-Gel fraction 63 is combined with fractions 61, 66 and 67 from the Bio-Gel column. These four combined fractions have a total of 235 absorbance units at 300 nm. To this is added 0.2 ml. of 1M Tris-HCl buffer, ph 7.5, and 0.2 ml. of penicillinase [Difco "Bacto-Penase," containing 500,000 units per ml. (1000 LU/ml.) wherein the term LU refers to Levy units; 1,000 LU will inactivate 500,000 units of penicillin G].
After 113 minutes at 23° C., an additional 0.2 ml. of penicillinase is added. After an additional 7 hours at room temperature, another 0.2 ml. of penicillinase is added, and after an additional two hours at room temperature, the reaction mixture is chilled in an ice bath. The terminated reaction mixture is diluted to 15 ml. by addition of 5 ml. of deionized water. The absorbance of the diluted reacted preparation is 6.3 at 300 nm of which 2.64 is extinguishable by reaction with cysteine.

Electrophoresis = type: physicochemical; conditions: neutral pH
[26] = test system: Vibrio percolans ATCC 8461; test: Bioassay, agar plate disc-diffusion method; conditions: 890A1 value defined as standard

Compound: CC(=O)NCCSC1=C(C(=O)O)N2C(=O)C(C(C)O)C2C1 (centres unmarked) [Antibiotic 890A3]
- zone of inhibition at 182 µg/mL [1]: 34 mm
- zone of inhibition at 182 µg/mL (Bacillus sp. MB-633): 37 mm
- zone of inhibition at 182 µg/mL [2]: 36 mm
- zone of inhibition at 182 µg/mL [3]: 34 mm
- zone of inhibition at 182 µg/mL (Proteus vulgaris MB-1012): 24 mm
- zone of inhibition at 182 µg/mL [4]: 0 mm
- zone of inhibition at 182 µg/mL [5]: 28 mm
- zone of inhibition at 182 µg/mL [6]: 36 mm
- zone of inhibition at 182 µg/mL [7]: 40 mm
- zone of inhibition at 182 µg/mL (Sarcina lutea ATCC 9341): 44 mm
- zone of inhibition at 182 µg/mL [8]: 34 mm
- zone of inhibition at 182 µg/mL [9]: 17 mm
- zone of inhibition at 182 µg/mL [10]: 27 mm
- zone of inhibition at 182 µg/mL [11]: 33 mm
- zone of inhibition at 182 µg/mL [12]: 40 mm
- zone of inhibition at 182 µg/mL [13]: 26 mm
- zone of inhibition at 182 µg/mL (Escherichia coli MB-1418): 32 mm
- zone of inhibition at 182 µg/mL [14]: 32 mm
- zone of inhibition at 182 µg/mL [15]: 33 mm
- zone of inhibition at 182 µg/mL [16]: 30 mm
- zone of inhibition at 182 µg/mL [17]: 30 mm
- zone of inhibition at 182 µg/mL [18]: 32 mm
- zone of inhibition at 182 µg/mL [19]: 29 mm
- zone of inhibition at 182 µg/mL [20]: 24 mm
- zone of inhibition at 182 µg/mL [21]: 30 mm
- zone of inhibition at 182 µg/mL [22]: 34 mm
- zone of inhibition at 182 µg/mL [23]: 38 mm
- zone of inhibition at 182 µg/mL [24]: 30 mm
- zone of inhibition at 182 µg/mL [25]: 35 mm
- resistance to degradation by penicillinase (penicillinase): relatively higher resistance
- movement on electrophoresis (Electrophoresis): acidic substance which moves to the positive pole on electrophoresis at neutral pH
- antibiotic potency [26]: 31 units per HAEA300 unit
